Data as given in patent US20230168259A1, “METHOD FOR PREDICTING THE COURSE OF A VIRAL DISEASE” (Leibniz-Institut für Virologie, priority 2020, published 2023).

Key:
MIP-1α = system: MIP-1α; set-up: species or system Syrian golden hamster; conditions: hamster, in vivo, ip
MIP-1β = system: MIP-1β; set-up: species or system Syrian golden hamster; conditions: hamster, in vivo, ip
SARS-CoV-2 = assay: Virus titer (plaque assay on VeroE6 cells) in organs of SARS-CoV-2 infected hamsters treated with letrozole or placebo; assay type: in vivo, Syrian golden hamster; conditions: 0.18 mg kg-1 i.p. daily, 3 d p.i., compared to placebo
[1] = SARS-CoV-2-infected female hamsters
[2] = SARS-CoV-2-infected male hamsters

N#Cc1ccc(C(c2ccc(C#N)cc2)n2cncn2)cc1 [letrozole]
lower: expression level of MIP-1α in lungs (MIP-1α) | expression level of MIP-1β in lungs (MIP-1β)
lower virus titers: virus titer in brain (SARS-CoV-2; [1]) | virus titer in lungs (SARS-CoV-2; [1]) | virus titer in plasma (SARS-CoV-2; [1]) | virus titer in brain (SARS-CoV-2; [2]) | virus titer in lungs (SARS-CoV-2; [2]) | virus titer in testis (SARS-CoV-2; [2])
